What is called EC50 is the concentration needed to bring the measured effect to its halfway point. Low readings indicate an effect from little substance, high ones a need for much substance.

The source of these data is paper PMC12263422, “Cryo-EM structure of the human THIK-1 K2P K^+ channel reveals a lower Y gate regulated by lipids and anesthetics” (Nature Structural & Molecular Biology, 2025).

Several values for one entry are separate records, joined by “and”; a condition that tells them apart may be missing. Identical values can stand only once.

The test deals with T1, THIK-1 R92A (Homo sapiens, UniProt Q9HB14, R92A).
T1 construct: expressed in transfected cells; host or cells: Xenopus oocytes (mRNA injection)
T1 sequence (Q9HB14 1-408 R92A): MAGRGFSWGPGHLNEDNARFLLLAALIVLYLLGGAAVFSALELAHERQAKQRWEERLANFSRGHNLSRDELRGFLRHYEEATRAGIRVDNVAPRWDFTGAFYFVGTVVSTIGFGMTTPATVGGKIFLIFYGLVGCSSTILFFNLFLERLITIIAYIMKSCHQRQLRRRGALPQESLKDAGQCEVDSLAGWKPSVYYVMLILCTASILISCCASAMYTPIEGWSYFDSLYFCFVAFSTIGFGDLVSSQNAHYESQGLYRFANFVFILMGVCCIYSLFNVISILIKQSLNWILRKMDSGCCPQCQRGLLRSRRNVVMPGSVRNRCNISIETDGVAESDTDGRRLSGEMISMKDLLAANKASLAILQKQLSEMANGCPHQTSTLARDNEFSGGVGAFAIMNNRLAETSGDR
Put plainly: Inside-out excised patch recordings, oocytes, THIK-1 R92A mutant (lipid activation). The format is cell-based. To be noted: for EC50: Linoleic acid EC50, THIK-1 R92A; for Fold activation with 30.0 µM linoleic acid: THIK-1 R92A. The source says:
Human K2P13.1 THIK-1 (GenBank accession number: NM_022054) and human K2P12.1 THIK-2 (NM_022055.1) were used in this study. For functional expression studies, the respective K^+ channel subtype coding sequences were subcloned into the oocyte expression vector pSGEM or the dual-purpose expression vector pFAW[41] and verified by sequencing. All mutant channels were obtained by site-directed mutagenesis and verified by sequencing. To increase surface expression and macroscopic currents, measurements of THIK-2 channels used a mutated ER retention motif, (R11A R12A R14A R15A R16A; THIK-2*)[20]. Vector DNA was linearized with NheI or MluI, and mRNA was synthesized in vitro using the SP6 or T7 AmpliCap Max High Yield Message Maker Kit (Cellscript, USA) or HiScribe T7 ARCA mRNA Kit (New England Biolabs).
Two-electrode voltage–clamp (TEVC) studies were performed in Xenopus oocytes. All animal use conformed to the Guide for the Care and Use of Laboratory Animals (NIH Publication 85–23), and all experiments using Xenopus toads were approved by the local ethics panels. Oocytes were stored at 17 °C in ND96 recording solution composed of (in mM): 96 NaCl, 2 KCl, 1.8 CaCl2, 1 MgCl2, 5 HEPES (pH 7.5 adjusted with NaOH and HCl), supplemented with Na-pyruvate (275 mg L^–1), theophylline (90 mg L^–1) and gentamicin (50 mg L^–1). Oocytes were injected with 1 ng mRNA for WT or mutant channels, and were incubated for 24–48 h at 17 °C. Two-electrode voltage clamp recordings were then performed as previously described[42],[43]. For macroscopic patch–clamp measurements, oocytes were obtained as described above incubated at 17 °C in a solution containing (mM): 54 NaCl, 30 KCl, 2.4 NaHCO3, 0.82 MgSO4 ×7 H2O, 0.41 CaCl2, 0.33 Ca(NO3)2 ×4 H2O and 7.5 TRIS (pH 7.4 adjusted with NaOH and HCl) for 1–4 days before use. Excised patch recordings in inside-out configuration conditions were performed at room temperature. Patch pipettes were made from thick-walled borosilicate glass GB 200TF-8P (Science Products), had resistances of 0.2–0.5 MΩ (tip diameter, 10–25 µm) and filled with a pipette solution (in mM): 120 KCl, 10 HEPES and 3.6 CaCl2 (pH 7.4 adjusted with KOH and HCl). Intracellular bath solutions and compounds were applied to the cytoplasmic side of excised patches for the various K^+ channels through a gravity flow multi-barrel pipette system. The intracellular solution had the following composition (in mM): 120 KCl, 10 HEPES, 2 EGTA and 1 pyrophosphate (pH adjusted with KOH and HCl). Currents were recorded with an EPC10 amplifier (HEKA Electronics) and sampled at 10 kHz or higher, with filtering set to 3 kHz (–3 dB) or higher, as appropriate for sampling rate. For measurements of GPCR activation, whole-cell currents were recorded for THIK-1 in transiently transfected HEK-293 cells. Cells were stimulated by a ramp protocol between −100 and +60 mV (holding potential, −80 mV). The pipette solution was composed of (in mM): 140 KCl, 2 MgCl2, 1 CaCl2, 2.5 EGTA and 10 HEPES (pH 7.3 adjusted with KOH and HCl). The extracellular bath solution had the following composition (in mM): 135 NaCl, 5 KCl, 2 MgCl2, 2 CaCl2, 10 glucose and 10 HEPES pH (pH 7.3 adjusted with NaOH and HCl). Oxotremorine M (Oxo-M) was added to extracellular bath solution to obtain the final concentration. Single-channel currents were recorded with an Axopatch 200B amplifier through a Digidata 1440A digitizer (Molecular Devices). Data were filtered at 2 kHz and recorded at a 200-kHz sampling rate with the program Clampex (Molecular Devices). Pipette solution and bath solution for cell-attached recordings contained (in mM): 140 KCl, 2 MgCl2, 1 CaCl2 and 10 HEPES (pH 7.4 adjusted with KOH and HCl). For inside-out recordings, the bath solution contained (in mM): 140 KCl, 2 MgCl2, 1 CaCl2 and 10 HEPES (pH 7.2 adjusted with KOH and HCl). All experiments were conducted at room temperature. […]

Take `CCCCC/C=C\C/C=C\CCCCCCCC(=O)O` [linoleic acid]: the EC50 reads like this: (individual recordings) 52.3 µM and 38.8 µM and 36.8 µM and 60.6 µM and 44.2 µM and 91.1 µM and 115 µM; (mean) 62.6 µM. Also, the “Fold activation with 30.0 µM linoleic acid” value runs as follows: (individual recordings) 1.900 and 2.280 and 2.410 and 2.160 and 1.740 and 1.840 and 1.500 and 1.630 and 1.510; (mean) 1.89.
